Experiments:
Format in all cases: in vivo
[1] = test system: diamondback moths (Plutella xylostella); assay: Insecticidal test for diamondback moths; details: Plutella xylostella, 144 h; 500 ppm chemical solution, leaves soaked, third-instar larvae, six days, 25°C; read-out: death rate
Method in brief: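 Leaves dipped about 10 s in a 500 ppm aqueous dilution of an emulsion formulation with spreader, then air-dried. Five third-instar larvae released per dish and held at 25 °C. Tested in duplicate.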

[2] = test system: brown rice planthoppers (Nilaparvata lugens); assay: Insecticidal test for brown rice planthoppers; details: Nilaparvata lugens, 144 h; 500 ppm chemical solution, rice leaf sheaths soaked, third-instar larvae, six days, 25°C; read-out: death rate
Method in brief: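 Rice leaf sheaths dipped ~10 s in 500 ppm compound solution (emulsion diluted in water with spreader), air-dried, then infested with five third-instar larvae per tube at 25 °C. Mortality scored after 6 days, death rate calculated, in duplicate.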

[3] = test system: western flower thrips (Frankliniella occidentalis); assay: Insecticidal activity against western flower thrips; details: Frankliniella occidentalis, 48 h; 500 ppm chemical solution sprinkled (2.5 mg/cm^2), larvae on common bean leaf, after 2 days; read-out: death rate
Method in brief: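 Bean leaf squares on wet filter paper inoculated with 20 larvae. Compound emulsion diluted with spreader-containing water to 500 ppm and sprayed at 2.5 mg/cm^2 by rotary tower. Run in duplicate.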

[4] = test system: cat fleas (Ctenocephalides felis); assay: whole plant or invertebrate; details: 72 h, read-out: death rate
Method in brief: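 Glass containers (25 cm² inner surface) were coated with 250 µl of a 1000 ppm acetone solution, and the acetone was evaporated to leave a dry film. Five mixed-sex adult fleas were confined per container at 25°C. Mortality was scored after 3 days.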

[5] = test system: green peach aphids (Myzus persicae); assay: Insecticidal test for green peach aphids; details: Myzus persicae, foliar, 144 h; 500 ppm chemical solution sprinkled (2.5 mg/cm^2), wingless imagoes on leaf disc, six days, 25°C; read-out: death rate
Method: Wet absorbent cotton was laid on each glass dish having an inner diameter of 3 cm, a Chinese olive leaf cut into a circle having a diameter of 3 cm was placed thereon, and four wingless green peach aphids (Myzus persicae) imagoes were released. After a day, a 10% by mass emulsion of the presently invented compound prepared according to the above formulation example for an emulsion was diluted with water containing a spreader to prepare a chemical solution having a concentration of 500 ppm. The chemical solution prepared was sprinkled (2.5 mg/cm^2) with a rotary tower sprinkler, and the dishes were capped and accommodated in a thermostatic room at 25°C. […] The test was carried out in duplicate.

Structure (SMILES) | mortality at 500 µg/mL [1] | mortality at 500 µg/mL [2] | mortality at 500 µg/mL [3] | mortality at 10 µg/cm2 [4] | mortality at 500 µg/mL [5]
O=C(Nc1ccc(Cl)cc1)C1=C(O)CC(c2cnc(Cl)c(-c3ccc(F)nc3)c2)NC1=O (stereo not drawn) [2-035, 6'-chloro-N-(4-chlorophenyl)-6"-fluoro-4-hydroxy-6-oxo-1,2,3,6-tetrahydro-[2,3':5',3"-terpyridine]-5-carboxamide] | ≥ 90% | ≥ 90% | ≥ 90% | ≥ 50% | ≥ 90%
O=C(Nc1cc(Br)ccn1)C1=C(O)CC(c2nc(-c3ccncc3Cl)no2)NC1=O (stereo not drawn) [3-232] | ≥ 90% | ≥ 90% | ≥ 90% | ≥ 50% | ≥ 90%
O=C(Nc1cnccn1)C1=C(O)CC(c2nc(-c3ccc(F)nc3)no2)NC1=O (stereo not drawn) [3-257] | ≥ 90% | ≥ 90% | ≥ 90% | ≥ 50% | ≥ 90%
O=C(Nc1cnccc1Cl)C1=C(O)CC(c2nc(-c3ccncc3Cl)no2)NC1=O (stereo not drawn) [3-228] | ≥ 90% | ≥ 90% | ≥ 90% | ≥ 50% | ≥ 90%
Cc1cccc(-c2cc(C3CC(O)=C(C(=O)Nc4ncccn4)C(=O)N3)cnc2Cl)c1 (stereo not drawn) [2-271] | ≥ 90% | ≥ 90% | ≥ 90% | ≥ 50% | ≥ 90%
O=C(Nc1cc(F)ccn1)C1=C(O)CC(c2nc(-c3ccccc3)no2)NC1=O (stereo not drawn) [3-055] | ≥ 90% | ≥ 90% | ≥ 90% | ≥ 50% | ≥ 90%
O=C(Nc1ccc(F)cc1)C1=C(O)CC(c2ccc(C(F)(F)F)c(-c3ccncc3)c2)NC1=O (stereo not drawn) [1-014] | ≥ 90% | ≥ 90% | ≥ 90% | ≥ 50% | ≥ 90%
O=C(Nc1ncc(Cl)cn1)C1=C(O)CC(c2cnc(Cl)c(-c3cccnc3)c2)NC1=O (stereo not drawn) [2-100] | ≥ 90% | ≥ 90% | ≥ 90% | ≥ 50% | ≥ 90%
O=C(Nc1ccc(F)cc1)C1=C(O)CC(c2nc(-c3ccc(F)c(F)c3)no2)NC1=O (stereo not drawn) [3-027] | ≥ 90% | ≥ 90% | ≥ 90% | ≥ 50% | ≥ 90%
O=C(Nc1cc(F)ccn1)C1=C(O)CC(c2nc(-c3ccc(F)cc3)no2)NC1=O (stereo not drawn) [3-056] | ≥ 90% | ≥ 90% | ≥ 90% | ≥ 50% | ≥ 90%
O=C(Nc1ccc(F)cc1)C1=C(O)CC(c2nc(-c3cccc(F)c3)no2)NC1=O (stereo not drawn) [3-011] | ≥ 90% | ≥ 90% | ≥ 90% | ≥ 50% | ≥ 90%
O=C(Nc1ccc(F)cn1)C1=C(O)CC(c2nc(-c3ccncc3Cl)no2)NC1=O (stereo not drawn) [3-236] | ≥ 90% | ≥ 90% | ≥ 90% | ≥ 50% | ≥ 90%
O=C(Nc1cnc(Cl)cn1)C1=C(O)CC(c2nc(-c3ccc(F)nc3)no2)NC1=O (stereo not drawn) [3-269] | ≥ 90% | ≥ 90% | ≥ 90% | ≥ 50% | ≥ 90%
O=C(Nc1ccc(F)cc1)C1=C(O)CC(c2cnc(Cl)c(-c3cncc(F)c3)c2)NC1=O (stereo not drawn) [2-058] | ≥ 90% | ≥ 90% | ≥ 90% | ≥ 50% | ≥ 90%
O=C(Nc1ccc(F)cn1)C1=C(O)CC(c2nc(-c3ncco3)no2)NC1=O (stereo not drawn) [3-265] | ≥ 90% | ≥ 90% | ≥ 90% | ≥ 50% | ≥ 90%
